# Where “and” joins values, the source holds several entries; their conditions need not be identical. Identical values can stand only once. Like-named read-outs stand apart in the source and are kept apart here.
# Legend:
# Assay type in all cases: in vivo
# [1] = system: Phytophthora infestans (PHYTIN); experiment: whole plant or invertebrate; details: for pest or weed control at 5.56 ppm: 5.56 ppm alone
# [2] = system: Plasmopara viticola (PLASVI); experiment: whole plant or invertebrate; details: for pest or weed control at 1.85 ppm: 1.85 ppm alone; for pest or weed control at 5.56 ppm: 5.56 ppm alone
# [3] = system: Phytophthora infestans (PHYTIN); details: 1DC
# [4] = system: Plasmopara viticola (PLASVI)
# [5] = Plasmopara viticola, 24 h, read-out: % Disease Control (observed), 1DP
# [6] = Plasmopara viticola, 24 h, read-out: % Disease Control (observed), 1DP, Table 14
# [7] = Plasmopara viticola, 48 h, read-out: % Disease Control (observed), 2DP
# [8] = Plasmopara viticola, 168 h, read-out: % Disease Control (observed), 7DP
compound,measurement,setting,value
"CC[C@H](CS(=O)(=O)C(C)c1ccc(C#N)cc1)NC(=O)Oc1ccc(F)cc1 (stereo partly drawn) [Formula III, 4-fluorophenyl(1S)-1-({[(1R,S)-(4-cyanophenyl)ethyl]sulfonyl}methyl)-propylcarbamate]",% Disease Control (Observed),"[1]; 4DP, 0.60 ppm alone",15.8%
same,% Disease Control (Observed),"[1]; 4DP, 2.80 ppm alone",34.2%
same,% Disease Control (Observed),"[1]; 4DP, 5.60 ppm alone",21.10%
same,% Disease Control (Observed),"[1]; PHYTIN 2DP, applied alone at 0.4 ppm",5.3%
same,% Disease Control (Observed),"[1]; PHYTIN 2DP, applied alone at 1.1 ppm",15.8%
same,% Disease Control (Observed),"[1]; PHYTIN 2DP, applied alone at 5.56 ppm",12.3%
same,% Disease Control (Observed),"[1]; PHYTIN 3DP, applied alone at 0.62 ppm",3.5%
same,% Disease Control (Observed),"[1]; PHYTIN 3DP, applied alone at 1.1 ppm",12.3%
same,% Disease Control (Observed),"[1]; PHYTIN 6DP, applied alone at 1.1 ppm",3.5%
same,% Disease Control (Observed),"[1]; PHYTIN 6DP, applied alone at 3.3 ppm",33.3%
same,pest or weed control at 0.6 ppm,"[1]; Phytophthora infestans, 24 h, read-out: % Disease Control (observed), 1DP, 0.60 ppm alone",3.5%
same,pest or weed control at 1.9 ppm,"[1]; Phytophthora infestans, 24 h, read-out: % Disease Control (observed), 1DP, 1.90 ppm alone",78.6%
same,pest or weed control at 0.62 ppm,"[1]; Phytophthora infestans, 48 h, read-out: % Disease Control (observed), 2DP, 0.62 ppm alone",8.8%
same,pest or weed control at 5.56 ppm,"[1]; Phytophthora infestans, 48 h, read-out: % Disease Control (observed), 2DP",12.3%
same,pest or weed control at 0.21 ppm,"[1]; Phytophthora infestans, 72 h, read-out: % Disease Control (observed), 3DP, 0.21 ppm alone",0%
same,pest or weed control at 0.6 ppm,"[1]; Phytophthora infestans, 72 h, read-out: % Disease Control (observed), 3DP, 0.60 ppm alone",73.7%
same,pest or weed control at 0.9 ppm,"[1]; Phytophthora infestans, 72 h, read-out: % Disease Control (observed), 3DP, 0.90 ppm alone",1.8%
same,pest or weed control at 2.8 ppm,"[1]; Phytophthora infestans, 72 h, read-out: % Disease Control (observed), 3DP, 2.80 ppm alone",47.4%
same,pest or weed control at 5.56 ppm,"[1]; Phytophthora infestans, 72 h, read-out: % Disease Control (observed), 3DP",57.9%
same,pest or weed control at 5.56 ppm,"[1]; Phytophthora infestans, 72 h, read-out: % Disease Control (observed), Table 10, PHYTIN (3DP) as printed",31.6%
same,pest or weed control at 1.85 ppm,"[1]; Phytophthora infestans, 96 h, read-out: % Disease Control (observed)",38.6%
same,% Disease Control (Observed),[1]; in vivo,26.3%
same,% Disease Control (Observed),"[2]; 1DP, 0.20 ppm alone",8.8%
same,% Disease Control (Observed),"[2]; 1DP, 0.67 ppm alone",49.1%
same,% Disease Control (Observed),"[2]; 4DP, 1.90 ppm alone",26.30%
same,% Disease Control (Observed),"[2]; PLASVI 2DP, applied alone at 0.4 ppm",8.8%
same,% Disease Control (Observed),"[2]; PLASVI 2DP, applied alone at 1.1 ppm",22.8%
same,% Disease Control (Observed),"[2]; PLASVI 2DP, applied alone at 1.85 ppm",7.0%
same,% Disease Control (Observed),"[2]; PLASVI 2DP, applied alone at 3.3 ppm",42.1%
same,% Disease Control (Observed),"[2]; PLASVI 2DP, applied alone at 5.56 ppm",19.3%
same,% Disease Control (Observed),"[2]; PLASVI 3DP, applied alone at 0.4 ppm",1.8%
same,% Disease Control (Observed),"[2]; PLASVI 3DP, applied alone at 1.1 ppm",12.3%
same,% Disease Control (Observed),"[2]; PLASVI 3DP, applied alone at 5.56 ppm",31.6%
same,% Disease Control (Observed),"[2]; PLASVI 6DP, applied alone at 3.3 ppm",12.3%
same,pest or weed control at 0.2 ppm,"[2]; Plasmopara viticola, 24 h, read-out: % Disease Control (observed), 1DP, 0.20 ppm alone",1.8%
same,pest or weed control at 0.21 ppm,"[2]; Plasmopara viticola, 24 h, read-out: % Disease Control (observed), 1DP, 0.21 ppm alone",14%
same,pest or weed control at 0.62 ppm,"[2]; Plasmopara viticola, 24 h, read-out: % Disease Control (observed), 1DP, 0.62 ppm alone",17.5%
same,pest or weed control at 1.85 ppm,[2]; [5],71.9%
same,pest or weed control at 5.56 ppm,[2]; [5],78.9%
same,pest or weed control at 1.85 ppm,[2]; [6],24.6%
same,pest or weed control at 5.56 ppm,[2]; [6],78.9%
same,pest or weed control at 0.62 ppm,"[2]; Plasmopara viticola, 48 h, read-out: % Disease Control (observed), 2DP, 0.62 ppm alone",1.8%
same,pest or weed control at 1.85 ppm,[2]; [7],15.8%
same,pest or weed control at 5.56 ppm,[2]; [7],56.1%
same,pest or weed control at 0.21 ppm,"[2]; Plasmopara viticola, 72 h, read-out: % Disease Control (observed), 3DP, 0.21 ppm alone",0%
same,pest or weed control at 0.3 ppm,"[2]; Plasmopara viticola, 72 h, read-out: % Disease Control (observed), 3DP, 0.30 ppm alone",0%
same,pest or weed control at 5.56 ppm,"[2]; Plasmopara viticola, 72 h, read-out: % Disease Control (observed), 3DP",40.4%
same,pest or weed control at 1.85 ppm,[2]; [8],14%
same,pest or weed control at 5.56 ppm,[2]; [8],52.6%
same,% Disease Control (Observed),[3]; 0.62 ppm alone,0.0%
same,% Disease Control (Observed),[3]; 0.90 ppm alone,0.0%
same,% Disease Control (Observed),[3]; 1.85 ppm alone,35.1%
same,% Disease Control (Observed),[3]; 1.90 ppm alone,21.1%
same,% Disease Control (Observed),[3]; 5.56 ppm alone,5.3%
same,% Disease Control (Observed),[3]; 8.30 ppm alone,8.8%
same,% Disease Control (Observed),[3]; 16.70 ppm alone,31.6%
same,% Disease Control (Observed),"[4]; 1DC, 0.60 ppm alone",5.3%
same,% Disease Control (Observed),"[4]; 1DC, 0.90 ppm alone",0.0%
same,% Disease Control (Observed),"[4]; 1DC, 1.85 ppm alone",17.5%
same,% Disease Control (Observed),"[4]; 1DC, 2.80 ppm alone",8.8% and 16.0%
same,% Disease Control (Observed),"[4]; 1DC, 5.56 ppm alone",17.5%
same,% Disease Control (Observed),"[4]; 1DC, 16.70 ppm alone",45.6%
"COCC(=O)N(c1c(C)cccc1C)[C@H](C)C(=O)OC [Mefenoxam, mefenoxam]",% Disease Control (Observed),"[1]; 1DP, 0.60 ppm alone",12.3%
same,% Disease Control (Observed),"[1]; PHYTIN 2DP, applied alone at 3.7 ppm",12.3%
same,% Disease Control (Observed),"[1]; PHYTIN 2DP, applied alone at 11.1 ppm",17.5%
same,% Disease Control (Observed),"[2]; 1DP, 0.21 ppm alone",33.3%
same,% Disease Control (Observed),"[2]; 1DP, 0.62 ppm alone",82.5%
same,% Disease Control (Observed),"[2]; PLASVI 2DP, applied alone at 11.1 ppm",38.6%
same,% Disease Control (Observed),"[2]; PLASVI 2DP, applied alone at 33.3 ppm",66.7%
same,% Disease Control (Observed),[3]; 1.85 ppm alone,56.1%
same,% Disease Control (Observed),[4]; in vivo,94.7%

# Reference: patent US20060153933A1 (priority 2002, published 2006)
